Assay [1] has as its system IGF1R-Sal tumors. The experiment in a line: IGF-1R Sal Tumor Model (tumor xenograft in nude mice). It counts as in vivo. Conditions: qd, orally for 4 consecutive days, nude mice bearing IGF1R-Sal tumors. Here is the method:
P. IGF-1R Sal Tumor Model
A salivary gland adenocarcinoma that developed spontaneously in a transgenic mouse (MCI-19) was excised and cut into fragments of about 20 mg. Tumor fragments were implanted s.c. into the ventral thoracic region of a group of six female, athymic BALB/c nu/nu mice (Harley Sprague-Dawley, Indianapolis, Ind.), using a 13-gauge trocar. Once established, the salivary gland-derived tumor line was designated IGF1R-Sal and was propagated as a tumor xenograft in nude mice. Tumors were passaged every 2 weeks, at which time the tumor reached f500 to 1,000 mm3 in size. For treatment studies, nude micebearing IGF1R-Sal tumors of about 100 mm3 in size were sorted into groups of five for treatment with vehicle (80% polyethylene glycol 400 in water) alone or the test article. Compounds were administered either on a bid schedule (oral doses 8 hours apart) or on a once a day schedule orally (qd) for 4 consecutive days. Tumors were measured at the start and end of treatment. Activity was measured as % tumor growth inhibition (% TGI). The % TGI was determined using the following formula (Ct−Tt)/(Ct−Co) where Ct is defined as the median tumor size of the control group at the end of treatment, Co is defined as the median tumor size of the control group at the start of treatment, and Tt is defined as the median tumor size of the treated group at the end of treatment.
(§1) Compounds described herein were tested in the above assay.

Assay [2] deals with IGF1-receptor (Homo sapiens, UniProt P08069). As to the kind of experiment: IGF1-Receptor Tyrosine Kinase Assay (Caliper LabChip, fluoresceinated IGF1R substrate peptide). It counts as biochemical. Conditions: In vitro kinase data; ATP 25 μM, IGF1-Receptor 14 nM; read-out: IGF-1R IC50. The procedure: D. IGF1-Receptor Tyrosine Kinase Assay
The assays were performed in U-bottom 384-well plates. The final assay volume was 30 μl prepared from 15 μl additions of enzyme and substrates (fluoresceinated IGF1R substrate peptide and ATP) and test compounds in assay buffer (100 mM HEPES pH 7.4, 10 mM MnCl2, 0.015% Brij35 and 4 mM DTT). The reaction was initiated by the combination of IGF1-receptor with substrates and test compounds. The reaction was incubated at room temperature for 60 min. and terminated by adding 30 μl of 35 mM EDTA to each sample. The reaction mixture was analyzed on the Caliper LabChip 3000 by electrophoretic separation of the fluorescent substrate and phosphorylated product. Inhibition data were calculated by comparison to no enzyme control reactions for 100% inhibition and vehicle-only reactions for 0% inhibition. The final concentration of reagents in the assays is ATP, 25 μM; FL-peptide, 1.5 μM; IGF1-Receptor, 14 nM; and DMSO, 1.6%. Dose response curves were generated to determine the concentration required inhibiting 50% of kinase activity (IC50). Compounds were dissolved at 10 mM in dimethylsulfoxide (DMSO) and evaluated at eleven concentrations, each in duplicate. IC50 values were derived by non-linear regression analysis.
as §1

Usually IC50 stands for the point on the concentration scale where inhibition reaches its midpoint.

IGF1-receptor, sequence (P08069 31-1367): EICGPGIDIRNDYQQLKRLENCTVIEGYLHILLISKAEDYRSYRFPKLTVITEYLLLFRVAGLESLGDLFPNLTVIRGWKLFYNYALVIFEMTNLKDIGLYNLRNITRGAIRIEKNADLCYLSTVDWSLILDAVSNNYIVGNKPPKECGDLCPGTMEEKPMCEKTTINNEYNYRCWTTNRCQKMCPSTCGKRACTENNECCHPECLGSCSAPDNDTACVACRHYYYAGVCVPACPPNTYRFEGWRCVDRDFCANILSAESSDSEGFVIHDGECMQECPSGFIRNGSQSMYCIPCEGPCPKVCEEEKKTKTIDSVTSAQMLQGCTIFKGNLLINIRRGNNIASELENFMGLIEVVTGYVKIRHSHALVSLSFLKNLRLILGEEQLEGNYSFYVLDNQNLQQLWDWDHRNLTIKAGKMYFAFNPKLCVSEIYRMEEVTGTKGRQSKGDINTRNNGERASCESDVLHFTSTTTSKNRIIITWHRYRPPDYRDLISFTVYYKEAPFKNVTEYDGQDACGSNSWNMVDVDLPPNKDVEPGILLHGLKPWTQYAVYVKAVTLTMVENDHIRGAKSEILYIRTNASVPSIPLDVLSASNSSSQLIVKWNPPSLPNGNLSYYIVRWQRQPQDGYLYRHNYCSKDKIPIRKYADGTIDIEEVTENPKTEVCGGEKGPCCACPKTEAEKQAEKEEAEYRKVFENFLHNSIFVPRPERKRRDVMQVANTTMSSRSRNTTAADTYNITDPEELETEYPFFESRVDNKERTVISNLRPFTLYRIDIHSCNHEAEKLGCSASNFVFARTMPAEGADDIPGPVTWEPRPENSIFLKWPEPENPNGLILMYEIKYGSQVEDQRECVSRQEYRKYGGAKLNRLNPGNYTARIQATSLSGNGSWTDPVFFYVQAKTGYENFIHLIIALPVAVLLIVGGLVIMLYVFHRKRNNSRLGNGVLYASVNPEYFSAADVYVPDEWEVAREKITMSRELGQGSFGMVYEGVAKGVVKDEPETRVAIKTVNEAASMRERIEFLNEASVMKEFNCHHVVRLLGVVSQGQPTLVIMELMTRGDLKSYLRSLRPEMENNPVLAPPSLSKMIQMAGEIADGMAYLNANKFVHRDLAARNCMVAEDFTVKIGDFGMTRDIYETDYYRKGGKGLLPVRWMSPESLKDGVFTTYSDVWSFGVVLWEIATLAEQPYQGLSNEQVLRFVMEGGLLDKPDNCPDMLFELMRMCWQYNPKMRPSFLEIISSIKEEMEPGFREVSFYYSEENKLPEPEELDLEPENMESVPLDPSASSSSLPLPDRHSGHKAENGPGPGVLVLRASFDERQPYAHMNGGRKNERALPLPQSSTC

For the molecule `Cc1ccnc(Nc2ncc(Sc3ccnc(C(=O)NCC4(C5CCCCC5)CCN(C[C@H](O)CO)CC4)c3F)s2)c1` [Example 74, (S)—N-((4-cyclohexyl-1-(2,3-dihydroxypropyl)piperidin-4-yl)methyl)-3-fluoro-4-(2-(4-methylpyridin-2-ylamino)thiazol-5-ylthio)picolinamide], in assay [1] (50 mg/kg), the “% TGI” value was 100%. For the same molecule, the IC50 in assay [2] was found to be 0.009 µM.
Turning to `Cc1ccnc(Nc2ncc(Sc3ccnc(C(=O)NCC4(c5ccccc5)CCN(C(=O)C(C)(C)N)CC4)c3F)s2)c1` [Example 95, N-((1-(2-amino-2-methylpropanoyl)-4-phenylpiperidin-4-yl)methyl)-3-fluoro-4-(2-(4-methylpyridin-2-ylamino)thiazol-5-ylthio)picolinamide], the half-maximal inhibitory concentration (IC50) in assay [2] was 4.52 µM.
As for `Cc1ccnc(Nc2ncc(Sc3ccnc(C(=O)NCC4(c5ccccc5)CCN(C(=O)c5cc(S(N)(=O)=O)c(F)cc5Cl)CC4)c3F)s2)c1` [Example 93, N-((1-(2-chloro-4-fluoro-5-sulfamoylbenzoyl)-4-phenylpiperidin-4-yl)methyl)-3-fluoro-4-(2-(4-methylpyridin-2-ylamino)thiazol-5-ylthio)picolinamide], the half-inhibitory concentration (IC50) in assay [2] came out at 3.26 µM.
The same measure, in the same setting: under `Cc1ccnc(Nc2ncc(Sc3ccnc(C(=O)NCC4(c5ccccc5)CCN(C(=O)N(C)C)CC4)c3F)s2)c1` [Example 89, N-((1-(dimethylcarbamoyl)-4-phenylpiperidin-4-yl)methyl)-3-fluoro-4-(2-(4-methylpyridin-2-ylamino)thiazol-5-ylthio)picolinamide] stands 0.358 µM.
With `Cc1ccnc(Nc2ncc(Sc3ccnc(C(=O)NCC4(c5ccccc5)CCN(C(=O)N5CCOCC5)CC4)c3F)s2)c1` [Example 90, 3-Fluoro-4-(2-(4-methylpyridin-2-ylamino)thiazol-5-ylthio)-N-((1-(morpholine-4-carbonyl)-4-phenylpiperidin-4-yl)methyl)picolinamide], the 50% inhibitory concentration (IC50) in assay [2] amounted to 0.311 µM.
Take `Cc1ccnc(Nc2ncc(Sc3ccnc(C(=O)NCC4(c5ccccc5)CCN(C(=O)c5ccc(Cl)c(S(N)(=O)=O)c5)CC4)c3F)s2)c1` [Example 92, N-((1-(4-chloro-3-sulfamoylbenzoyl)-4-phenylpiperidin-4-yl)methyl)-3-fluoro-4-(2-(4-methylpyridin-2-ylamino)thiazol-5-ylthio)picolinamide]: the IC50 in assay [2] turned out to be 2 µM.
`Cc1ccnc(Nc2ncc(Sc3ccnc(C(=O)NCC4(c5ccccc5)CCN(C(=O)c5cccnc5)CC4)c3F)s2)c1` [Example 18, 3-Fluoro-4-(2-(4-methylpyridin-2-ylamino)thiazol-5-ylthio)-N-((1-nicotinoyl-4-phenylpiperidin-4-yl)methyl)picolinamide]: in assay [2], the IC50 was determined as 0.001 µM.
As to `COC(=O)N1CCC(CNC(=O)c2nccc(Sc3cnc(Nc4cc(C)ccn4)s3)c2F)(c2ccccn2)CC1` [Example 87, Methyl 4-((3-fluoro-4-(2-(4-methylpyridin-2-ylamino)thiazol-5-ylthio)picolinamido)methyl)-4-(pyridin-2-yl)piperidine-1-carboxylate], the concentration for half-maximal inhibition (IC50) in assay [2] came to 0.423 µM.
Same read-out and setting: under `Cc1ccnc(Nc2ncc(Sc3ccnc(C(=O)NCC4(c5ccccc5)CCN(S(C)(=O)=O)CC4)c3F)s2)c1` [Example 24, 3-Fluoro-4-(2-(4-methylpyridin-2-ylamino)thiazol-5-ylthio)-N-((1-(methylsulfonyl)-4-phenylpiperidin-4-yl)methyl)picolinamide] stands 0.001 µM; under `COCCOC(=O)N1CCC(CNC(=O)c2nccc(Sc3cnc(Nc4cc(C)ccn4)s3)c2F)(c2ccc(Cl)c(Cl)c2)CC1` [Example 86, 2-methoxyethyl 4-(3,4-dichlorophenyl)-4-((3-fluoro-4-(2-(4-methylpyridin-2-ylamino)thiazol-5-ylthio)picolinamido)methyl)piperidine-1-carboxylate], 5.69 µM.
For `Cc1ccnc(Nc2ncc(Sc3ccnc(C(=O)NCC4(c5ccccc5)CCN(CCO)CC4)c3F)s2)c1` [Example 5, 3-Fluoro-N-((1-(2-hydroxyethyl)-4-phenylpiperidin-4-yl)methyl)-4-(2-(4-methylpyridin-2-ylamino)thiazol-5-ylthio)picolinamide], the “% TGI” value in assay [1] (12.5 mg/kg) amounted to 102%. Besides, the IC50 in assay [2] worked out at 0.003 µM.
As to `Cc1ccnc(Nc2ncc(Sc3ccnc(C(=O)NCC4(c5ccccc5)CCN(CCC#N)CC4)c3F)s2)c1` [Example 33, N-((1-(2-cyanoethyl)-4-phenylpiperidin-4-yl)methyl)-3-fluoro-4-(2-(4-methylpyridin-2-ylamino)thiazol-5-ylthio)picolinamide], in assay [2], the IC50 was determined as 0.32 µM.
Regarding `Cc1ccnc(Nc2ncc(Sc3ccnc(C(=O)NCC4(C5CCCCC5)CCN(C(=O)OC(C)(C)C)CC4)c3F)s2)c1` [Example 44, tert-butyl 4-cyclohexyl-4-((3-fluoro-4-(2-(4-methylpyridin-2-ylamino)thiazol-5-ylthio)picolinamido)methyl)piperidine-1-carboxylate], the half-maximal inhibitory concentration (IC50) in assay [2] came out at 25 µM.
In the case of `Cc1ccnc(Nc2ncc(Sc3ccnc(C(=O)NCC4(c5ccccc5)CCN(C)CC4)c3F)s2)c1` [Example 2, 3-Fluoro-N-((1-methyl-4-phenylpiperidin-4-yl)methyl)-4-(2-(4-methylpyridin-2-ylamino)thiazol-5-ylthio)picolinamide], the “% TGI” value in assay [1] (12.5 mg/kg) worked out at 107%. For the same molecule, in assay [2], the IC50 stood at 0.009 µM.
For `Cc1ccnc(Nc2ncc(Sc3ccnc(C(=O)NCC4(c5ccccc5)CCN(C(=O)CN(C)C)CC4)c3F)s2)c1` [Example 12, N-((1-(2-(dimethylamino)acetyl)-4-phenylpiperidin-4-yl)methyl)-3-fluoro-4-(2-(4-methylpyridin-2-ylamino)thiazol-5-ylthio)picolinamide], the “% TGI” value in assay [1] (12.5 mg/kg) was determined as 92%. The IC50 in assay [2] stood at 0.006 µM.
Consider `Cc1ccnc(Nc2ncc(Sc3ccnc(C(=O)NCC4(c5ccccn5)CCN(CCO)CC4)c3F)s2)c1` [Example 58, 3-fluoro-N-((1-(2-hydroxyethyl)-4-(pyridin-2-yl)piperidin-4-yl)methyl)-4-(2-(4-methylpyridin-2-ylamino)thiazol-5-ylthio)picolinamide], for which the concentration for half-maximal inhibition (IC50) in assay [2] came out at 0.003 µM.
For the molecule `Cc1ccnc(Nc2ncc(Sc3ccnc(C(=O)NCC4(c5ccc(F)cc5F)CCN(C[C@H](O)CO)CC4)c3F)s2)c1` [Example 77, (S)—N-((4-(2,4-difluorophenyl)-1-(2,3-dihydroxypropyl)piperidin-4-yl)methyl)-3-fluoro-4-(2-(4-methylpyridin-2-ylamino)thiazol-5-ylthio)picolinamide], the “% TGI” value in assay [1] (25 mg/kg) came to 114%. Besides, the half-maximal inhibitory concentration (IC50) in assay [2] came to 0.009 µM.
For the molecule `CC(=O)N1CCC(CNC(=O)c2nccc(Sc3cnc(Nc4cc(C)ccn4)s3)c2F)(c2ccccc2)CC1` [Example 22, N-((1-acetyl-4-phenylpiperidin-4-yl)methyl)-3-fluoro-4-(2-(4-methylpyridin-2-ylamino)thiazol-5-ylthio)picolinamide], the IC50 in assay [2] was 0.003 µM.
Consider `COCCOC(=O)N1CCC(CNC(=O)c2nccc(Sc3cnc(Nc4cc(C)ccn4)s3)c2F)(c2ccccn2)CC1` [Example 88, 2-Methoxyethyl 4-((3-fluoro-4-(2-(4-methylpyridin-2-ylamino)thiazol-5-ylthio)picolinamido)methyl)-4-(pyridin-2-yl)piperidine-1-carboxylate], for which the concentration for half-maximal inhibition (IC50) in assay [2] amounted to 0.349 µM.
For the molecule `Cc1ccnc(Nc2ncc(Sc3ccnc(C(=O)NCC4(c5ccccc5)CCNCC4)c3F)s2)c1` [Example 11, 3-Fluoro-4-(2-(4-methylpyridin-2-ylamino)thiazol-5-ylthio)-N-((4-phenylpiperidin-4-yl)methyl)picolinamide], the “% TGI” value in assay [1] (12.5 mg/kg) turned out to be 19%. The IC50 in assay [2] was 0.004 µM.
